Test results published in ChEMBL document CHEMBL5050843, “Amide substituted thiazoles as protein secretion inhibitors” (2019).

Tests used:
[1] = Inhibition of constitutively active VCAMss-Gluc secretion in human Flp-In-T-REx-293 cells at 2.5 uM measured by Gaussia luciferase reporter gene method relative to control; format: functional
[2] = Inhibition of TNF-alpha-FL-Gluc secretion in doxycyclin-induced human Flp-In-T-REx-293 cells at 2.5 uM measured by Gaussia luciferase reporter gene method relative to control; format: functional
[3] = Inhibition of constitutively active VCAMss-Gluc secretion in human Flp-In-T-REx-293 cells at 2 uM measured by Gaussia luciferase reporter gene method relative to control; format: functional
[4] = Inhibition of constitutively active VCAMss-Gluc secretion in human Flp-In-T-REx-293 cells measured by Gaussia luciferase reporter gene method; format: functional, cell-based
[5] = Inhibition of VCAMss-Gluc secretion in doxycyclin-induced human Flp-In-T-REx-293 cells measured by Gaussia luciferase reporter gene method; format: functional, cell-based
[6] = Inhibition of PD1ss-Gluc secretion in doxycyclin-induced human Flp-In-T-REx-293 cells measured by Gaussia luciferase reporter gene method; format: functional, cell-based
[7] = Inhibition of constitutively active PR1ss-Gluc secretion in human Flp-In-T-REx-293 cells measured by Gaussia luciferase reporter gene method; format: functional, cell-based
[8] = Inhibition of PR1ss-Gluc secretion in doxycyclin-induced human Flp-In-T-REx-293 cells measured by Gaussia luciferase reporter gene method; format: functional, cell-based
[9] = Inhibition of TNF-alpha-FL-Gluc secretion in doxycyclin-induced human Flp-In-T-REx-293 cells measured by Gaussia luciferase reporter gene method; format: functional, cell-based
[10] = Inhibition of VCAMss-Gluc secretion in doxycyclin-induced human HEK293 cells measured by Gaussia luciferase reporter gene method; format: functional, cell-based
[11] = Inhibition of VCAM expression in human Flp-In-T-REx-293 cells measured by cellular VCAMss-Gluc assay; format: functional, cell-based
[12] = Inhibition of VCAM expression in doxycyclin-induced human HEK293-T-REx cells measured by Gaussia luciferase reporter gene method; format: functional, cell-based
[13] = Inhibition of HER3 expression in doxycyclin-induced human HEK293-T-REx cells measured by Gaussia luciferase reporter gene method; format: functional, cell-based
[14] = Inhibition of TLR9 expression in doxycyclin-induced human HEK293-T-REx cells measured by Gaussia luciferase reporter gene method; format: functional, cell-based
[15] = Inhibition of ROS1 expression in doxycyclin-induced human HEK293-T-REx cells measured by Gaussia luciferase reporter gene method; format: functional, cell-based
[16] = Inhibition of PD1 expression in doxycyclin-induced human HEK293-T-REx cells measured by Gaussia luciferase reporter gene method; format: functional, cell-based

IC50 [4] [µM] | IC50 [6] [µM] | IC50 [7] [µM] | IC50 [8] [µM] | Structure (SMILES) | inhibition at 2 µM [3] [%] | also measured
 |  |  |  | CC(C)(C)c1csc(NC(=O)c2cccs2)n1 |  | inhibition at 2.5 µM [1]: 23%; inhibition at 2.5 µM [2]: 24%
 |  |  |  | CN(C(=O)c1cc2c(s1)CCCC2)c1nc(C(C)(C)C)cs1 | 19 | 
 |  |  |  | Cc1ccc(S(=O)(=O)Nc2nc(C(C)(C)C)cs2)cc1 | 0 | 
4.11 | 3.87 | > 25 | > 25 | CC(C)(C)c1csc(NC(=O)c2cc3cc(-c4ccccc4Cl)ccc3s2)n1 |  | IC50 [5]: 9.53 µM
1 | 1.75 | > 25 | > 25 | CCCC(C)(C)c1csc(NC(=O)Cc2csc3ccc(Cl)cc23)n1 |  | IC50 [5]: 0.744 µM
2.11 | 12.9 | > 25 | > 25 | CC(C)(C)c1csc(NC(=O)Cc2cn(Cc3ccc(F)cc3)c3ccccc23)n1 |  | IC50 [5]: 1.14 µM
6.82 | 22.2 | > 25 | > 25 | Cc1ccc2c(CC(=O)Nc3nc(C(C)(C)C)cs3)csc2c1 |  | IC50 [5]: 5.9 µM
1.23 | 2.75 | > 25 | > 25 | CCC(C)(C)c1csc(NC(=O)Cc2csc3ccc(Cl)cc23)n1 |  | IC50 [5]: 0.826 µM
0.506 | 4.25 | > 25 | > 25 | CC(C)(C)c1csc(NC(=O)Cc2cn(Cc3ccccc3)c3ccc(Cl)cc23)n1 |  | IC50 [5]: 0.587 µM; IC50 [9]: 13.1 µM
 |  |  |  | CC(C)(C)c1csc(NC(=O)N2CCCOCC2)n1 | 0 | 
 |  |  |  | CC(C)(C)c1csc(NC(=O)Nc2nc(C(C)(C)C)cs2)n1 | 19 | 
0.915 | 5.37 | > 25 | > 25 | CC(C)(C)c1csc(NC(=O)Cc2csc3ccc(Cl)cc23)n1 |  | IC50 [5]: 1.11 µM; IC50 [9]: > 25 µM
 |  |  |  | O=C(NC1NC(c2ccccc2)=NS1)N1CCOc2ccc(Cl)cc2C1 (stereo not drawn) |  | IC50 [10]: 22.1 µM
12.5 | 9.84 | > 25 | > 25 | Cc1cc(C(=O)Nc2nc(C(C)(C)C)cs2)cs1 |  | IC50 [5]: 19.1 µM; IC50 [9]: > 25 µM; IC50 [10]: 3.3 µM
1.25 | 7.82 | > 25 | > 25 | CC(C)(C)c1csc(NC(=O)Cc2csc3ccc(C#N)cc23)n1 |  | IC50 [5]: 1.56 µM
9.8 |  | > 25 |  | CC(C)(C)c1csc(NC(=O)C2CCCCC2)n1 | 30 | 
1.41 | 2.76 | > 25 | > 25 | CC(C)(C)c1csc(NC(=O)Cc2cn(Cc3ccncc3)c3ccc(Cl)cc23)n1 |  | IC50 [9]: 11 µM
 |  |  |  | CC(C)(C)c1csc(NC(=O)c2ccc(-c3cccc([N+](=O)[O-])c3)s2)n1 | 59 | 
0.109 | 2.2 | > 25 | > 25 | CCC(C)(C)c1csc(NC(=O)Cc2cn(Cc3ccccc3)c3ccc(Cl)cc23)n1 |  | IC50 [9]: 9.8 µM
 |  |  |  | CC(C)(C)c1csc(NC(=O)c2cc3c(s2)CCNC3)n1 |  | inhibition at 2.5 µM [1]: 0%; inhibition at 2.5 µM [2]: 0%
 |  |  |  | CN(C)CC#Cc1ccc(C(=O)Nc2nc(C(C)(C)C)cs2)s1 | 76 | 
 |  |  |  | CC(C)(C)C(=O)Nc1nc(C(C)(C)C)cs1 | 0 | 
 | > 25 |  | > 25 | CC(C)(C)c1csc(NC(=O)C(Cc2ccccc2)c2cn(Cc3ccccc3)c3ccc(Cl)cc23)n1 (stereo not drawn) |  | IC50 [9]: > 25 µM; IC50 [11]: > 25 µM
 |  |  |  | Cc1ccc(C(=O)Nc2nc(C(C)(C)C)cs2)cc1 | 9 | 
 |  |  |  | CC(C)(C)c1csc(NC(=O)c2ccc(C#CCCCCCCCCO)s2)n1 | 52 | 
 |  |  |  | Cn1c(C(C)(C)C)cs/c1=N\C(=O)c1cc2c(s1)CCCC2 | 63 | 

IC50 [4] [µM] | IC50 [6] [µM] | IC50 [7] [µM] | IC50 [8] [µM] | Structure (SMILES) | inhibition at 2 µM [3] [%] | also measured
 |  |  |  | CC(C)(C)c1csc(NC(=O)c2ccc(-c3cc(Cl)cc(Cl)c3)s2)n1 | 35 | 
 |  | > 25 |  | CC(C)(C)c1csc(NC(=O)c2ccc(Cl)cc2)n1 |  | inhibition at 2.5 µM [1]: 66%; inhibition at 2.5 µM [2]: 0%
 |  |  |  | CC(C)(C)c1csc(NC(=O)c2ccc(C#CCN3CCOCC3)s2)n1 | 38 | 
 | 0.968 |  | > 25 | CCOC(C)(C)c1csc(NC(=O)Cc2cn(Cc3ccccc3Cl)c3ccc(Cl)cc23)n1 |  | IC50 [9]: 24.4 µM; IC50 [11]: 1 µM; IC50 [12]: < 5 µM; IC50 [13]: < 5 µM; IC50 [14]: < 5 µM; IC50 [15]: < 5 µM; IC50 [16]: < 5 µM
1.63 | 8.27 | > 25 | > 25 | Cc1ccc2scc(CC(=O)Nc3nc(C(C)(C)C)cs3)c2c1 |  | IC50 [5]: 2.24 µM
10.1 |  | > 25 |  | CC(C)(C)c1csc(NC(=O)N2CCOc3ccccc3C2)n1 | 24 | 
 |  |  |  | CC(C)(C)c1csc(NC(=O)c2cc3c(s2)CCN(Cc2ccccc2)C3)n1 |  | inhibition at 2.5 µM [1]: 33%; inhibition at 2.5 µM [2]: 22%
 |  |  |  | C#Cc1ccc(C(=O)Nc2nc(C(C)(C)C)cs2)s1 | 66 | 
 |  |  |  | CC(C)(C)c1csc(NC(=O)c2ccc(CCCO)s2)n1 | 31 | 
 |  |  |  | CC(O)CCc1ccc(C(=O)Nc2nc(C(C)(C)C)cs2)s1 (stereo not drawn) | 30 | 
5.35 | 4.44 | > 25 | > 25 | CC(C)(C)c1csc(NC(=O)c2cc3c(s2)CCCC3)n1 |  | IC50 [9]: 22.7 µM
 |  |  |  | O=C(Nc1nc(-c2ccc(C(F)(F)F)cc2)cs1)c1cc2c(s1)CCCC2 | 3 | 
2.42 | 20.4 | > 25 | > 25 | Cc1cccc2c(CC(=O)Nc3nc(C(C)(C)C)cs3)csc12 |  | IC50 [5]: 3.56 µM
 |  |  |  | COc1ccc2[nH]c(-c3ccc(C(=O)Nc4nc(C(C)(C)C)cs4)s3)cc2c1 |  | inhibition at 2.5 µM [1]: 42%; inhibition at 2.5 µM [2]: 27%
0.147 | 1.15 | > 25 | > 25 | CC(C)(C)c1csc(NC(=O)Cc2cn(Cc3ccccc3Cl)c3ccc(Cl)cc23)n1 |  | IC50 [9]: > 25 µM
 |  |  |  | CC(C)(C)c1csc(NC(=O)c2ccc(-c3cccnc3)s2)n1 | 19 | 
 |  |  |  | COc1ccc2c(c1)cc(-c1ccc(C(=O)Nc3nc(C(C)(C)C)cs3)s1)n2C(=O)OC(C)(C)C |  | inhibition at 2.5 µM [1]: 56%; inhibition at 2.5 µM [2]: 0%
 |  |  |  | CC(C)(C)c1csc(NC(=O)c2ccc(C#CCCCN3CCOCC3)s2)n1 | 45 | 
> 25 | > 25 | > 25 | > 25 | CC(C)(C)c1csc(NC(=O)c2cc3cc(C#N)ccc3s2)n1 |  | IC50 [5]: > 25 µM
 |  |  |  | CC(O)C#Cc1ccc(C(=O)Nc2nc(C(C)(C)C)cs2)s1 (stereo not drawn) | 24 | 
 |  |  |  | CC(C)(C)c1csc(NC(=O)c2ccc(C#CCCCO)s2)n1 | 53 | 
 |  |  |  | CC(C)(C)c1csc(NC(=O)c2ccc(C#C[Si](C)(C)C)s2)n1 | 54 | 
10.9 |  | > 25 |  | CC(C)(C)c1csc(NC(=O)c2ccc3c(c2)CCCC3)n1 | 20 | 
 |  |  |  | CC(C)(C)c1csc(NC(=O)c2ccc(C#CCO)s2)n1 | 80 | 
 |  |  |  | O=C(Nc1nc(C2CC3CCC(C3)C2)cs1)c1cc2c(s1)CCCC2 (stereo not drawn) | 55 | 
